Reference: ChEMBL document CHEMBL1147463, “Synthesis and anticancer activity of side chain analogs of the crambescidin alkaloids” (2004)

Columns and labels:
Format in all cases: functional
[1] = Murine tumor cell selectivity was measured as zone unit differential between ([…]) murine cell line and (CFU) normal bone marrow in disk diffusion soft agar colony formation assay at a concentration of 5 ug/disk
[2] = Murine tumor cell selectivity was measured as zone unit differential between (C38) colon adenocarcinoma and (CFU) normal bone marrow in disk diffusion soft agar colony formation assay at a concentration of 5 ug/disk
[3] = Human tumor selectivity was measured as zone unit differential between (H116) colon tumor and (CEM) lymphocytic leukemia in disk diffusion soft agar colony formation assay at a concentration of 5 ug/disk
[4] = Murine tumor cell selectivity was measured as zone unit differential between (C38) colon adenocarcinoma and ([…]) murine cell line in disk diffusion soft agar colony formation assay at a concentration of 5 ug/disk
[5] = Human tumor selectivity was measured as zone unit differential between (H125) lung small cell carcinoma and (CEM) lymphocytic leukemia in disk diffusion soft agar colony formation assay at a concentration of 5 ug/disk
[6] = Human tumor selectivity was measured as zone unit differential between (H125) lung small cell carcinoma and (CEM) lymphocytic leukemia in disk diffusion soft agar colony formation assay at a concentration of 75 ug/disk
[7] = Murine tumor cell selectivity as zone unit differential between (C38) colon adenocarcinoma and ([…]) murine cell line in disk diffusion soft agar colony formation assay at 75 ug/disk.
[8] = Murine tumor cell selectivity was measured as zone unit differential between (C38) colon adenocarcinoma and (CFU) normal bone marrow in disk diffusion soft agar colony formation assay at a concentration of 75 ug/disk
[9] = Murine tumor cell selectivity as zone unit differential between ([…]) murine cell line and (CFU) normal bone marrow in disk diffusion soft agar colony formation assay at 75 ug/disk.
[10] = Murine tumor cell selectivity was measured as zone unit differential between ([…]) murine cell line and (CFU) normal bone marrow in disk diffusion soft agar colony formation assay at a concentration of 19 ug/disk
[11] = Murine tumor cell selectivity was measured as zone unit differential between (C38) colon adenocarcinoma and (CFU) normal bone marrow in disk diffusion soft agar colony formation assay at a concentration of 19 ug/disk
[12] = Human tumor selectivity was measured as zone unit differential between (H116) colon tumor and (CEM) lymphocytic leukemia in disk diffusion soft agar colony formation assay at a concentration of 19 ug/disk
[13] = Human tumor selectivity was measured as zone unit differential between (H125) lung small cell carcinoma and (CEM) lymphocytic leukemia in disk diffusion soft agar colony formation assay at a concentration of 19 ug/disk
[14] = Murine tumor cell selectivity was measured as zone unit differential between (C38) colon adenocarcinoma and ([…]) murine cell line in disk diffusion soft agar colony formation assay at a concentration of 19 ug/disk

CC[C@H]1C=CCC[C@@]2(C[C@@H]3CC[C@@H]4[C@H](C(=O)OCc5ccccc5)[C@]5(CCC[C@@H](C)O5)NC(=[N+]34)N2)O1.[Cl-]
Selectivity [1]: 50 | Selectivity [2]: 100 | Selectivity [3]: 50 | Selectivity [4]: 50 | Selectivity [5]: 150

CC[C@H]1C=CCC[C@@]2(C[C@@H]3CC[C@H]4[C@@H](C(=O)OCCCCCCCCCCCCCCCC(=O)N(CCCN)C[C@@H](O)CCN)[C@@]5(CCC[C@@H](C)O5)NC(=[N+]34)N2)O1.Cl.Cl.[Cl-]
Selectivity [6]: 100 | Selectivity [7]: -50 | Selectivity [8]: 0 | Selectivity [9]: 50

CC[C@H]1C=CCC[C@@]2(C[C@@H]3CC[C@@H]4[C@H](C(=O)OCCCCCCCCCCCCCCC(=O)[O-])[C@]5(CCC[C@@H](C)O5)NC(=[N+]34)N2)O1.Cl [GUANIDINO ACID]
Selectivity [6]: 100 | Selectivity [7]: 200 | Selectivity [8]: 100 | Selectivity [9]: -100

CC[C@H]1C=CCC[C@@]2(C[C@@H]3CC[C@H]4[C@H](C(=O)OCCCCCCCCCCCCCCCC(=O)N(CCCN)C[C@@H](O)CCN)[C@@]5(CCC[C@@H](C)O5)NC(=[N+]34)N2)O1.Cl.Cl.[Cl-]
Selectivity [6]: 50 | Selectivity [7]: 0 | Selectivity [8]: 50 | Selectivity [9]: 50

CC[C@H]1C=CCC[C@@]2(C[C@@H]3CC[C@@H]4[C@H](C(=O)OCCCCCCCC(=O)O)[C@]5(CCC[C@@H](C)O5)NC(=[N+]34)N2)O1.[Cl-] [GUANIDINO ACID]
Selectivity [6]: -50 | Selectivity [7]: 100 | Selectivity [8]: 200 | Selectivity [9]: 100

CC[C@H]1C=CCC[C@@]2(C[C@@H]3CC[C@@H]4[C@H](C(=O)OC/C=C/c5ccccc5)[C@]5(CCC[C@@H](C)O5)NC(=[N+]34)N2)O1.[Cl-]
Selectivity [10]: -50 | Selectivity [11]: 100 | Selectivity [12]: 200 | Selectivity [13]: 200 | Selectivity [14]: 150

CC[C@H]1C=CCC[C@@]2(C[C@@H]3CC[C@@H]4[C@H](C(=O)OCCCCCCCCCCCCCCC(=O)N(CCCN)C[C@@H](O)CCN)[C@]5(CCC[C@@H](C)O5)NC(=[N+]34)N2)O1.Cl.Cl.[Cl-]
Selectivity [6]: 400 | Selectivity [7]: 50 | Selectivity [8]: 150 | Selectivity [9]: 100

CC[C@H]1C=CCC[C@@]2(C[C@@H]3CC[C@@H]4[C@@H](C(=O)[O-])[C@]5(CCC[C@@H](C)O5)NC(=[N+]34)N2)O1.Cl
Selectivity [6]: 50 | Selectivity [7]: -100 | Selectivity [8]: 200 | Selectivity [9]: 300

CC[C@H]1C=CCC[C@@]2(C[C@@H]3CC[C@@H]4[C@H](C(=O)OCC5CC5)[C@]5(CCC[C@@H](C)O5)NC(=[N+]34)N2)O1.[Cl-]
Selectivity [1]: 100 | Selectivity [2]: 300 | Selectivity [3]: 100 | Selectivity [4]: 200 | Selectivity [5]: 150

CC[C@H]1C=CCC[C@@]2(C[C@@H]3CC[C@@H]4[C@H](C(=O)OCCCCCCCCCCCCCCCC(=O)N(CCCN)C[C@@H](O)CCN)[C@]5(CCC[C@@H](C)O5)NC(=N2)N34)O1.Cl.Cl.Cl [CRAMBESCIDIN 800 TRIHYDROCHLORIDE]
Selectivity [6]: 50 | Selectivity [7]: -200 | Selectivity [8]: -50 | Selectivity [9]: 150

CC[C@H]1C=CCC[C@@]2(C[C@@H]3CC[C@@H]4[C@H](C(=O)OCCC(C)C)[C@]5(CCC[C@@H](C)O5)NC(=[N+]34)N2)O1.[Cl-]
Selectivity [1]: -50 | Selectivity [2]: 0 | Selectivity [3]: 50 | Selectivity [4]: 50 | Selectivity [5]: 150

CC[C@H]1C=CCC[C@@]2(C[C@@H]3CC[C@@H]4[C@H](C(=O)OCCCCCCCCCCCCCCCCCC(=O)N(CCCN)C[C@@H](O)CCN)[C@]5(CCC[C@@H](C)O5)NC(=[N+]34)N2)O1.Cl.Cl.[Cl-]
Selectivity [6]: 150 | Selectivity [7]: 50 | Selectivity [8]: 150 | Selectivity [9]: 100

CC[C@H]1C=CCC[C@@]2(C[C@@H]3CC[C@@H]4[C@H](C(=O)OCCCCCCCCCCCC(=O)O)[C@]5(CCC[C@@H](C)O5)NC(=[N+]34)N2)O1.[Cl-] [GUANIDINO ACID]
Selectivity [6]: 200 | Selectivity [7]: 200 | Selectivity [8]: 250 | Selectivity [9]: 50

CC[C@H]1C=CCC[C@@]2(C[C@@H]3CC[C@@H]4[C@H](C(=O)OCCCCCCCCCCCC(=O)N(CCCN)C[C@@H](O)CCN)[C@]5(CCC[C@@H](C)O5)NC(=[N+]34)N2)O1.Cl.Cl.[Cl-]
Selectivity [6]: 100 | Selectivity [7]: 50 | Selectivity [8]: 100 | Selectivity [9]: 50

CC[C@H]1C=CCC[C@@]2(C[C@@H]3CC[C@@H]4[C@@H](C(=O)OC/C=C/c5ccccc5)[C@]5(CCC[C@@H](C)O5)NC(=[N+]34)N2)O1.[Cl-]
Selectivity [1]: 50 | Selectivity [2]: 100 | Selectivity [3]: 100 | Selectivity [4]: 50 | Selectivity [5]: 200

CC[C@H]1C=CCC[C@@]2(C[C@@H]3CC[C@@H]4C[C@]5(CCC[C@@H](C)O5)NC(=[N+]43)N2)O1.[Cl-]
Selectivity [10]: 350 | Selectivity [11]: 0 | Selectivity [12]: 0 | Selectivity [13]: 150 | Selectivity [14]: -350

CC[C@H]1C=CCC[C@@]2(C[C@@H]3CC[C@@H]4[C@H](C(=O)O)[C@]5(CCC[C@@H](C)O5)NC(=[N+]34)N2)O1.[Cl-]
Selectivity [10]: 200 | Selectivity [11]: -50 | Selectivity [12]: 50 | Selectivity [13]: 100 | Selectivity [14]: -250

CC[C@H]1C=CCC[C@@]2(C[C@@H]3CC[C@@H]4[C@H](C(=O)OCCCCCCCC(=O)N(CCCN)C[C@@H](O)CCN)[C@]5(CCC[C@@H](C)O5)NC(=[N+]34)N2)O1.Cl.Cl.[Cl-]
Selectivity [6]: -50 | Selectivity [7]: -200 | Selectivity [8]: 100 | Selectivity [9]: 300

CC[C@H]1C=CCC[C@@]2(C[C@@H]3CC[C@@H]4[C@H](C(=O)OCCCCCCCCCC(=O)O)[C@]5(CCC[C@@H](C)O5)NC(=[N+]34)N2)O1.[Cl-] [GUANIDINO ACID]
Selectivity [6]: 50 | Selectivity [7]: 300 | Selectivity [8]: 100 | Selectivity [9]: -200

CC[C@H]1C=CCC[C@@]2(C[C@@H]3CC[C@@H]4[C@H](C(=O)OCCCCCC(=O)N(CCCN)C[C@@H](O)CCN)[C@]5(CCC[C@@H](C)O5)NC(=[N+]34)N2)O1.Cl.Cl.[Cl-]
Selectivity [6]: -50 | Selectivity [7]: -300 | Selectivity [8]: 0 | Selectivity [9]: 300

CC[C@H]1C=CCC[C@@]2(C[C@@H]3CC[C@@H]4[C@H](C(=O)OCCCCCCCCCCCCCCCCCC(=O)O)[C@]5(CCC[C@@H](C)O5)NC(=[N+]34)N2)O1.[Cl-] [GUANIDINO ACID]
Selectivity [6]: 150 | Selectivity [7]: 100 | Selectivity [8]: 100 | Selectivity [9]: 0

CC[C@H]1C=CCC[C@@]2(C[C@@H]3CC[C@@H]4[C@H](C(=O)OCCCCCC(=O)[O-])[C@]5(CCC[C@@H](C)O5)NC(=[N+]34)N2)O1.Cl [GUANIDINO ACID]
Selectivity [6]: 150 | Selectivity [7]: -200 | Selectivity [8]: 0 | Selectivity [9]: 200

CCOC(=O)[C@H]1[C@H]2CC[C@H]3C[C@@]4(CCC=C[C@H](CC)O4)NC(=[N+]32)N[C@@]12CCC[C@@H](C)O2.[Cl-]
Selectivity [1]: 200 | Selectivity [2]: 150 | Selectivity [3]: 0 | Selectivity [4]: -50 | Selectivity [5]: 100

CC[C@H]1C=CCC[C@@]2(C[C@@H]3CC[C@H]4[C@@H](C(=O)OCCCCCCCCCCCCCCCC(=O)O)[C@@]5(CCC[C@@H](C)O5)NC(=[N+]34)N2)O1.[Cl-]
Selectivity [6]: 150 | Selectivity [7]: 100 | Selectivity [8]: 50 | Selectivity [9]: -50

CC[C@H]1C=CCC[C@@]2(C[C@@H]3CC[C@@H]4[C@H](C(=O)OCCCCCCCCCC(=O)N(CCCN)C[C@@H](O)CCN)[C@]5(CCC[C@@H](C)O5)NC(=[N+]34)N2)O1.Cl.Cl.[Cl-]
Selectivity [6]: -50 | Selectivity [7]: 0 | Selectivity [8]: 100 | Selectivity [9]: 300

CC[C@H]1C=CCC[C@@]2(C[C@@H]3CC[C@@H]4[C@H](C(=O)OCCCCCCCCCCCCCCCC(=O)O)[C@]5(CCC[C@@H](C)O5)NC(=[N+]34)N2)O1.[Cl-] [CRAMBESCIDIN 657]
Selectivity [6]: 100 | Selectivity [7]: 150 | Selectivity [8]: 200 | Selectivity [9]: 50
